The results in this text go back to patent US7781428B2 (Pfizer Inc., priority 2006, dated 2010).

pIC50: −log10 of the molar value. A value given as a limit tells only on which side of the number the result lay.

What is called pIC50 is the IC50 on a negative log10 scale, so that one unit is a factor of ten.

For this assay, the target named is T1, mineralocorticoid receptor (MR) (Homo sapiens, UniProt P08235).
T1 construct: expressed in transfected cells; host or cells: Huh7 (human liver cells)
T1 sequence (P08235 726-964 limits assumed): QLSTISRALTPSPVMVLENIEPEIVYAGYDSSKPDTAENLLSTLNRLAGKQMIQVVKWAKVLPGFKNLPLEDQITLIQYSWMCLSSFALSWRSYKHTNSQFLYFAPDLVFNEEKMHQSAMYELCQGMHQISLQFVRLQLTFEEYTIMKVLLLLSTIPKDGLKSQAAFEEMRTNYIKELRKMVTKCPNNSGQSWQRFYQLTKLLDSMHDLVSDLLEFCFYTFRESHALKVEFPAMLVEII
The assay is described as follows: Cell-based Gal4 response element-controlled luciferase reporter assay (MR antagonism). The conditions noted are these: Huh7 human liver cells transfected with Gal4 DBD-MR LBD fusion and luciferase reporter; block of agonist-induced activation; overnight incubation. The text has this:
Method 1: Cell-based Gal4 Response Element-controlled Luciferase Reporter Assay
An in vitro assay can be used to evaluate mineralocorticoid receptor (MR) antagonism by a test compound. […] An agonist of the receptor can bind to and activate the receptor LBD, which activate the expression of the Gal4 response element containing luciferase reporter gene. Antagonists can compete for binding to the receptor LBDs and decrease the transcription activity of the reporter gene. Measurement of luciferase activity allows quantitative determinations of the reporter transcription in the presence of either agonists or agonists and antagonists in combination. β-galactosidase activity, which is unaffected by ligand, is used to normalize the transfection efficiency in the cell population.
Huh7 cells were plated in RPMI1640+10% fetal bovine serum (Invitrogen Corporation, San Diego, Calif.), at 10,000 cells per well in 96-well tissue culture dishes for approximately 24 hours. Cells were then transfected using FuGENE™ 6 Transfection Reagent according to manufacturers' instructions (Roche Molecular Biochemicals, Indianapolis, Ind.). Approximately 20 hours after transfection, media were removed. Cells were washed once with PBS and treated (n=6/group) with agonist for each receptor (all chemicals from Sigma, St. Louis, Mo.), and with compounds. Agonist concentrations represent 70-80% of full activation of each receptor.
Compounds were dissolved in DMSO at 10 mM and diluted to final concentrations in phenol red-free media that contained 10% charcoal- and dextran-stripped serum (Life Technologies, Gathersburg, Md.). Following overnight incubation (18-20 hours) with compounds, the medium was removed and replaced with 100 μL per well of PBS and 100 μL of Steady-Glo™ lysis buffer with luciferase substrate (Promega Corporation, Madison, Wis.). After a 30-minute incubation to completely lyse the cells, 100 μL of the lysate was transferred to a black, Dynatech Microfluor assay plates (Dynex Corporation, Chantilly, Va.) to measure luciferase activity. The plate was sealed with TopSeal self-adhesive film, dark-adapted for 5 minutes, then counted in a TopCount Plate Reader (Packard Instrument Company, Meriden, Conn.) in single photon counting mode. The remaining lysate was used for determination of β-galactosidase activity. In a clear 96-well assay plate, 100 μL of cell lysate was added to 100 μL β-galactosidase assay buffer per well. The assay buffer consisted of 60 mM Na2HPO4, 40 mM NaH2PO4, 10 mM KCl, 1 mM MgSO4, 50 mM β-mercaptoethanol, and 2.5 mg/mL ONPG, the latter two reagents were added just prior to assay (all chemicals from Sigma). The reaction was allowed to proceed until a distinct yellow color developed. Reactions were stopped by the addition of 100 μL per well 1 M Na2CO3 and plates were read at 420 nm in Victor-2 (Perkin Elmer Life Sciences, Boston, Mass.). Values (relative luciferase activity) for each sample were expressed as a ratio of luciferase activity to OD420β-galactosidase activity measured in arbitrary units for each well. […] “b” is the slope, “c” is the IC50 or EC50. “x” is the concentration of the compound and “y” the activity at that concentration.
A general note: Reporter assays use an easily measured gene product as a stand-in for the process of interest.
Regarding `N#Cc1ccc(N2N=C3c4ccc(OS(=O)(=O)C(F)(F)F)cc4OCC3C2c2ccc(F)cc2)cc1Cl` (racemic) [Example 92, 2-(3-chloro-4-cyanophenyl)-3-(4-fluorophenyl)-2,3,3a,4-tetrahydrochromeno[4,3-c]pyrazol-7-yl trifluoromethanesulfonate], the negative logarithm of the IC50 (pIC50) was under 6.00.

For the molecule `CS(=O)(=O)CCNC(=O)c1ccc2c(c1)CCC1C2=NN(c2ccc(C#N)c(Cl)c2)C1c1ccc(F)cc1` (racemic) [Example 96, 2-(3-chloro-4-cyanophenyl)-3-(4-fluorophenyl)-N-(2-(methylsulfonyl)ethyl)-3,3a,4,5-tetrahydro-2H-benzo[g]indazole-7-carboxamide], the pIC50 was 7.92.

Regarding `CS(=O)(=O)CCNC(=O)c1ccc2c(c1)CCC1C2=NN(c2ccc(C#N)c(Cl)c2)C1c1ccc(F)cc1` (racemic) [Example 97, (±)-(3RS,3aRS)-2-(3-chloro-4-cyanophenyl)-3-(4-fluorophenyl)-N-(2-(methylsulfonyl)ethyl)-3,3a,4,5-tetrahydro-2H-benzo[g]indazole-7-carboxamide], the pIC50 was 7.92.

As for `C[S+]([O-])CCNC(=O)c1ccc2c(c1)CC[C@@H]1C2=NN(c2ccc(C#N)c(Cl)c2)[C@H]1c1ccc(F)cc1` (mixture of isomers) [Example 98, (±)-(3RS,3aSR)-2-(3-chloro-4-cyanophenyl)-3-(4-fluorophenyl)-N-(2-(methylsulfinyl)ethyl)-3,3a,4,5-tetrahydro-2H-benzo[g]indazole-7-carboxamide], the pIC50 is 7.89.

As for `C[S+]([O-])CCNC(=O)c1ccc2c(c1)CC[C@H]1C2=NN(c2ccc(C#N)c(Cl)c2)[C@H]1C1CCOCC1` (mixture of isomers) [Example 99], the pIC50 is 7.85.

Regarding `CS(=O)(=O)CCNC(=O)c1ccc2c(c1)CC[C@H]1C2=NN(c2ccc(C#N)c(Cl)c2)[C@H]1C1CCOCC1` (racemic) [Example 100], the pIC50 was 7.68.

Regarding `C[S+]([O-])CCNC(=O)c1ccc2c(c1)CC[C@H]1C2=NN(c2ccc(C#N)c(Cl)c2)[C@H]1c1ccc(F)cc1` (mixture of isomers) [Example 101, (±)-(3RS,3aRS)-2-(3-chloro-4-cyanophenyl)-3-(4-fluorophenyl)-N-[2-(methylsulfinyl)ethyl]-3,3a,4,5-tetrahydro-2H-benzo[g]indazole-7-carboxamide], the negative-log IC50 (pIC50) is 7.64.

On to `N#Cc1ccc(N2N=C3c4ccc(C(=O)NCCC(N)=O)cc4CC[C@@H]3[C@@H]2c2ccc(F)cc2)cc1Cl` (racemic) [Example 102, (±)-(3RS,3aRS)—N-(3-amino-3-oxopropyl)-2-(3-chloro-4-cyanophenyl)-3-(4-fluorophenyl)-3,3a,4,5-tetrahydro-2H-benzo[g]indazole-7-carboxamide], for which the pIC50 was 7.46.

On to `N#Cc1ccc(N2N=C3c4ccc(C(=O)NCCCCCC(=O)O)cc4CC[C@@H]3[C@@H]2c2ccc(F)cc2)cc1Cl` (racemic) [Example 103, (±)-6-((3RS,3aRS)-2-(3-chloro-4-cyanophenyl)-3-(4-fluorophenyl)-3,3a,4,5-tetrahydro-2H-benzo[g]indazole-7-carboxamido)hexanoic acid], for which the pIC50 was 6.95.

As for `N#Cc1ccc(N2N=C3c4ccc(C(=O)NCCCCC(=O)O)cc4CC[C@@H]3[C@@H]2c2ccc(F)cc2)cc1Cl` (racemic) [Example 104, (±)-5-((3RS,3aRS)-2-(3-chloro-4-cyanophenyl)-3-(4-fluorophenyl)-3,3a,4,5-tetrahydro-2H-benzo[g]indazole-7-carboxamido)pentanoic acid], the negative logarithm of the IC50 (pIC50) was 6.91.

Regarding `N#Cc1ccc(N2N=C3c4ccc(C(=O)NCCS(N)(=O)=O)cc4CC[C@@H]3[C@@H]2C2CCOCC2)cc1Cl` (racemic) [Example 105, (±)-(3SR,3aRS)—N-[2-(aminosulfonyl)ethyl]-2-(3-chloro-4-cyanophenyl)-3-(tetrahydro-2H-pyran-4-yl)-3,3a,4,5-tetrahydro-2H-benzo[g]indazole-7-carboxamide], the negative logarithm of the IC50 (pIC50) is 6.85.

In the case of `N#Cc1ccc(N2N=C3c4ccc(C(=O)NCCCC(=O)O)cc4CC[C@@H]3[C@@H]2c2ccc(F)cc2)cc1Cl` (racemic) [Example 106, (±)-4-((3RS,3aRS)-2-(3-chloro-4-cyanophenyl)-3-(4-fluorophenyl)-3,3a,4,5-tetrahydro-2H-benzo[g]indazole-7-carboxamido)butanoic acid], the pIC50 was 6.51.

Turning to `CCN(CC)CCN(CCN(CC)CC)C(=O)c1ccc2c(c1)CC[C@H]1C2=NN(c2ccc(C#N)c(Cl)c2)[C@H]1c1ccc(F)cc1` (racemic) [Example 107, (±)-(3RS,3aRS)-2-(3-chloro-4-cyanophenyl)-N,N-bis(2-(diethylamino)ethyl)-3-(4-fluorophenyl)-3,3a,4,5-tetrahydro-2H-benzo[g]indazole-7-carboxamide bistrifluoroacetate], the negative-log IC50 (pIC50) was 6.28.

For the molecule `N#Cc1ccc(N2N=C3c4ccc(C(=O)NCC(=O)NCC(=O)O)cc4CC[C@H]3[C@@H]2c2ccc(F)cc2)cc1Cl` (racemic) [Example 108, (±)-2-(2-((3RS,3aSR)-2-(3-chloro-4-cyanophenyl)-3-(4-fluorophenyl)-3,3a,4,5-tetrahydro-2H-benzo[g]indazole-7-carboxamido)acetamido)acetic acid], the pIC50 was under 6.00.

As for `N#Cc1ccc(N2N=C3c4ccc(C(=O)NCCOCC(=O)O)cc4CC[C@@H]3[C@@H]2c2ccc(F)cc2)cc1Cl` (racemic) [Example 109, (±)-2-(2-((3RS,3aRS)-2-(3-chloro-4-cyanophenyl)-3-(4-fluorophenyl)-3,3a,4,5-tetrahydro-2H-benzo[g]indazole-7-carboxamido)ethoxy)acetic acid], the pIC50 was under 6.00.

In the case of `N#Cc1ccc(N2N=C3c4ccc(C(=O)NCC(=O)NCC(=O)O)cc4CC[C@@H]3[C@@H]2c2ccc(F)cc2)cc1Cl` (racemic) [Example 110, (±)-2-(2-((3RS,3aRS)-2-(3-chloro-4-cyanophenyl)-3-(4-fluorophenyl)-3,3a,4,5-tetrahydro-2H-benzo[g]indazole-7-carboxamido)acetamido)acetic acid], the pIC50 was under 6.00.

As to `N#Cc1ccc(N2N=C3c4ccc(C(=O)NCCN5CCCC5)cc4CC[C@@H]3[C@@H]2c2ccc(F)cc2)cc1Cl` (racemic) [Example 111, (±)-(3RS,3aRS)-2-(3-chloro-4-cyanophenyl)-3-(4-fluorophenyl)-N-(2-(pyrrolidin-1-yl)ethyl)-3,3a,4,5-tetrahydro-2H-benzo[g] indazole-7-carboxamide], the negative logarithm of the IC50 (pIC50) was 7.24.

`N#Cc1ccc(N2N=C3c4cc(C(=O)NCCN5CCCC5)ccc4CC[C@@H]3[C@@H]2c2ccc(F)cc2)cc1Cl` (racemic) [Example 112, (±)-(3RS13aRS)-2-(3-chloro-4-cyanophenyl)-3-(4-fluorophenyl)-N-(2-(pyrrolidin-1-yl)ethyl)-3,3a,4,5-tetrahydro-2H-benzo[g]indazole-8-carboxamide]: the pIC50 was 5.81.

`CS(=O)(=O)NC(=O)c1ccc2c(c1)CC[C@H]1C2=NN(c2ccc(C#N)c(Cl)c2)[C@H]1c1ccc(F)cc1` (racemic) [Example 113, (±)-(3RS,3aRS)-2-(3-chloro-4-cyanophenyl)-3-(4-fluorophenyl)-N-(methylsulfonyl)-3,3a,4,5-tetrahydro-2H-benzo[g]indazole-7-carboxamide]: the pIC50 is 6.00.

Take `Cc1cc(N2N=C3c4ccc(C(=O)O)cc4CC[C@@H]3[C@@H]2C2CCCC2)ccc1C#N` (single isomer, unassigned) [Example 22]: the pIC50 was 8.40.

Turning to `Cc1cc(N2N=C3c4ccc(C(=O)O)cc4CC[C@H]3[C@H]2C2CCCC2)ccc1C#N` (single isomer, unassigned) [Example 23], the pIC50 is under 6.30.

As to `Cc1cc(N2N=C3c4ccc(C(=O)O)cc4OC[C@@H]3[C@@H]2C2CCCC2)ccc1C#N` (single isomer, unassigned) [Example 62], the negative-log IC50 (pIC50) is 7.59.
